Assay results as given in patent US20110124888A1, “STYRYLBENZOFURAN DERIVATIVES AS INHIBITORS FOR BETA-AMYLOID FIBRIL FORMATION AND PREPARATION METHOD THEREOF” (Korea Institute of Science and Technology, priority 2008, published 2011).

Experiments:
[1] = tested on: transgenic double tg mice (APPswe, PSEN1 dE9); assay: In vivo fear conditioning test in transgenic mice; conditions: for Increase rate (fold) of freezing: 5 to 12 months of age, based on the freezing (%) of Tg vehicle group
Experimental: The tails of 3-week old mice born from Male B6C3-Tg (APPswe, PSEN1 dE9, Jackson Laboratory Co., Maine, A) and female B6C3F1 (central Lab. Animal Inc., Korea) were cut in lengths of about 0.5 cm (tail biopsy). The genomic DNAs were extracted from the tail samples and subjected to a genotype analysis to screen transgenic double tg mice.
From 5 months to 12 months after the birth, the mice were administered orally with the compound of Example 9, in an amount of 30 mg/kg or 100 mg/kg every day. As a comparative compound, tramiprosate (Aisen, P. S. et. al., Curr. Alzheimer Res. 2007, 4, 473) was used, which binds to beta-amyloid protein to inhibit the deposition and cytotoxicity to the protein. The compounds were administrated.
3) Fear Conditioning Test
At the First day of training, the mice were placed in a conditioning box and adjusted for 2 min. The fear conditioning was performed with a conditional stimulus (CS) of 75 dB for 20 sec, together with an electrical stimulus (unconditional stimulus (US)) of 0.5 mA for final 2 sec in the conditional stimulus period. After 1 min, the animals were transferred to a cage. After 24 hrs, the retention test was performed. The animals were placed in the same conditioning box as used above and observed for 5 min. The freezing response was measured without CS and US. The freezing response is defined in the state of the animals keeping still except for breathing.

[2] = tested on: congo red-positive beta-amyloid plagues; assay: Immunohistochemistry: congo red-positive beta-amyloid plaque count in hippocampus and cortex of transgenic mice; assay type: in vivo; conditions: for Reduction rate (%) of beta-amyloid plaques, cortex / Reduction rate (%) of beta-amyloid plaques, hippocampus / Total reduction rate (%) of beta-amyloid plaques: vs Tg group
Experimental: The transgenic mice were screened and drug was administered thereto as described in 1) and 2) of Experimental Example 4. The brain was separated from the transgenic mouse and fixed in 10% neutral formalin solution. A region of the brain including the hippocampus and the cortex were subjected to removal, washing, dehydration and paraffin infiltration to obtain paraffin block including the brain tissue. The paraffin block was subjected to thin section in thickness of 8 μm to obtain the sections of all regions of hippocampus. Among them, 10 sections were elected at regular intervals. They were deparaffinized, hydrated, immersed in Mayer's hematoxylin for 1 min and rinsed with tap water. The rinsed tissue was reacted in an alkaline sodium chloride solution for 20 min, after then was reacted in an alkaline congo red solution for 20 min. The resulting tissue was washed with 100% ethyl alcohol, cleared with xylene and mounted using a synthetic mounting medium. In the hippocampus and cortex regions of the tissue preparations strained with congo red, congo red-positive beta-amyloid plagues were counted.

beta-amyloid 42 = beta-amyloid 42 (Homo sapiens, UniProt P05067); assay: Biochemical test: content of beta-amyloid 42 in hippocampus tissue of transgenic mice; assay type: in vivo; conditions: for Reduction rate (%) of beta amyloid 42 content: hippocampus tissue, based on the content of beta amyloid 42 in the Tg group
beta-amyloid 42, sequence (P05067 672-713 limits assumed): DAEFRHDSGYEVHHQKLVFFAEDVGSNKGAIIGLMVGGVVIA

Row | Structure (SMILES) | melting point | Increase rate (fold) of freezing ([1]; 30 mg/kg orally every day) | Increase rate (fold) of freezing ([1]; 100 mg/kg orally every day) | degree of memory compared with tramiprosate (in words) ([1]; 30 and 100 mg/kg) | Reduction rate (%) of beta-amyloid plaques, cortex ([2]; 30 mg/kg) | Reduction rate (%) of beta-amyloid plaques, hippocampus ([2]; 30 mg/kg) | Total reduction rate (%) of beta-amyloid plaques ([2]; 30 mg/kg) | Reduction rate (%) of beta-amyloid plaques, cortex ([2]; 100 mg/kg) | Reduction rate (%) of beta-amyloid plaques, hippocampus ([2]; 100 mg/kg) | Total reduction rate (%) of beta-amyloid plaques ([2]; 100 mg/kg) | beta-amyloid deposition in stained hippocampus and cortex tissues compared with tramiprosate (in words) ([2]; FIGS. 1 and 2) | reduction rate of beta-amyloid deposition compared with tramiprosate (in words) ([2]; Table 12, 30 and 100 mg/kg) | Reduction rate (%) of beta amyloid 42 content (beta-amyloid 42; 30 mg/kg) | Reduction rate (%) of beta amyloid 42 content (beta-amyloid 42; 100 mg/kg) | reduction rate of beta-amyloid plague compared with tramiprosate (in words) (beta-amyloid 42; Table 13, 30 and 100 mg/kg)
1 | CNc1ccc(C=Cc2cc3cc(OC)ccc3o2)cc1 [Compound 17, 5-methoxy-2-(4-methylaminostyryl)benzofuran] | 174 to 175 °C | – | – | – | – | – | – | – | – | – | – | – | – | – | –
2 | COc1ccc2cc(C=Cc3ccc(N(C)C)cc3)oc2c1 [Compound 9, 6-methoxy-2-(4-dimethylaminostyryl)benzofuran] | – | 3.2 fold | 3.8 fold | much higher degree of memory in a dose-dependent manner | 43% | 29% | 41% | 61% | 64% | 61% | remarkably reduced beta-amyloid deposition | remarkable reduction rate of beta-amyloid deposition in a dose-dependent manner | 41% | 48% | remarkable reduction rate of beta-amyloid plague in a dose-dependent manner
